A value given as a limit tells only on which side of the number the result lay.

What is called EC50 is the midpoint of the concentration-response curve.

The test deals with mGluR4 (UniProt Q14833). Kind of test: mGluR4 potentiation assay: increase in response to an EC20 concentration of agonist (species not given). The test is classed as cell-based. The conditions noted are these: EC50 for potentiation of mGluR4; table does not state human or rat. As for the experimental part: The disclosed compounds and compositions can be evaluated for their ability to act as a potentiator of metabotropic glutamate receptor activity, in particular mGluR4 activity, by any suitable known methodology known in the art. For example, Chinese Hamster Ovary (CHO) cells transfected with human mGluR4 or […] co-transfected with rat mGluR4 and the G-protein regulated Inwardly Rectifying Potassium channel (GIRK) were plated in clear bottom assay plates for assay in a Hamamatsu FDSS Fluorometric Plate Reader. The cells were loaded with either a Ca2+-sensitive fluorescent dye or the thallium responsive dye and the plates were washed and placed into a suitable kinetic plate reader. For human mGluR4 assays, a fluorescence baseline was established for 3-5 seconds, the disclosed compounds were then added to the cells, and the response in cells was measured. Approximately two and a half minutes later, a concentration of mGluR4 orthosteric agonist (e.g. glutamate or L-AP4) eliciting approximately 20% (EC20) of the maximal agonist response was added to the cells, and the response was measured. Two minutes later, a concentration of mGluR4 agonist (e.g. glutamate or L-AP4) eliciting 80% (EC80) of the maximal agonist response was added to the cells, and the response was measured. For rat mGluR4/GIRK experiments, a baseline was established for approximately five seconds, disclosed compounds were added, and either an EC20 or EC80 concentration of agonist was added approximately two and one half minutes later. Potentiation of the agonist response of mGluR4 by the disclosed compounds was observed as an increase in response to the EC20 concentration of agonist in the presence of compound compared to the response to agonist in the absence of compound. Similarly, antagonism of the agonist response of mGluR4 by the disclosed compounds was observed as a decrease in response to the EC80 concentration of agonist in the presence of compound compared to the response to agonist in the absence of compound.
The above described assay operated in two modes. In the first mode, a range of concentrations of the disclosed compounds are added to cells, followed by a single fixed concentration of agonist. If the compound acts as a potentiator, an EC50 value for potentiation and a maximum extent of potentiation by the compound at this concentration of agonist is determined by non-linear curve fitting. If the compound acts as a noncompetitive antagonist, an IC50 value is determined by non-linear curve fitting. In the second mode, several fixed concentrations of the disclosed compounds are added to various wells on a plate, followed by a range in concentrations of agonist for each concentration of disclosed compound. The EC50 values for the agonist at each concentration of compound are determined by non-linear curve fitting. A decrease in the EC50 value of the agonist with increasing concentrations of the sample compound (a leftward shift of the agonist concentration-response curve) is an indication of the degree of mGluR4 potentiation at a given concentration of the sample compound. A decrease in the maximal response of the agonist with increasing concentrations of the sample compounds, with or without a rightward shift in agonist potency, is an indication of the degree of noncompetitive antagonism at mGluR4. The second mode also indicates whether the sample compounds also affect the maximum response to mGluR4 to agonists.
These compounds are positive allosteric modulators (potentiators) of human and rat mGluR4 and were selective for mGluR4 compared to the other seven subtypes of metabotropic glutamate receptors.
Regarding `Clc1nn(C2CCC2)c2ccc(Nc3n[nH]c4cccnc34)cc12` [Example 276, N-(3-chloro-1-cyclobutyl-1H-indazol-5-yl)-1H-pyrazolo[4,3-b]pyridin-3-amine], the EC50 is above 10000 nM.

Turning to `Cc1nn(C(C)C)c2ccc(Nc3n[nH]c4cccnc34)cc12` [Example 61, N-(1-isopropyl-3-methyl-1H-indazol-5-yl)-1H-pyrazolo[4,3-b]pyridin-3-amine], the EC50 was determined as 133 nM. Turning to `Cn1nc(C2CC2)c2ccc(Nc3n[nH]c4c3CC(F)(F)CC4)cc21` [Example 14, 3-cyclopropyl-N-(5,5-difluoro-4,5,6,7-tetrahydro-1H-indazol-3-yl)-1-methyl-1H-indazol-6-amine], the EC50 is above 10000 nM.

On to `Cc1nn(Cc2noc3ccccc23)c2ccc(Nc3n[nH]c4cccnc34)cc12` [Example 92, N-(1-(benzo[d]isoxazol-3-ylmethyl)-3-methyl-1H-indazol-5-yl)-1H-pyrazolo[4,3-b]pyridin-3-amine], for which the concentration for a half-maximal effect (EC50) came to 81 nM.

With `Cc1cc(Nc2n[nH]c3nccnc23)cc2c1cnn2C` [Example 51, N-(1,4-dimethyl-1H-indazol-6-yl)-1H-pyrazolo[3,4-b]pyrazin-3-amine], the EC50 was found to be 150 nM.

With `Cc1nn(CC(C)(F)F)c2ccc(Nc3n[nH]c4cccnc34)cc12` [Example 139, N-(1-(2,2-difluoropropyl)-3-methyl-1H-indazol-5-yl)-1H-pyrazolo[4,3-b]pyridin-3-amine], the EC50 was 310 nM. On to `Cc1cc(Cn2nc(C)c3cc(Nc4n[nH]c5ncccc45)ccc32)no1` [Example 77, N-(3-methyl-1-((5-methylisoxazol-3-yl)methyl)-1H-indazol-5-yl)-1H-pyrazolo[3,4-b]pyridin-3-amine], for which the EC50 was 157 nM. In the case of `Cc1nn(CC2CCC2)c2ccc(Nc3n[nH]c4ccccc34)cc12` [Example 71, N-(1-(cyclobutylmethyl)-3-methyl-1H-indazol-5-yl)-1H-indazol-3-amine], the EC50 came to 342 nM. With `CN1CCN(C(=O)c2nn(C)c3cc(Nc4n[nH]c5cccnc45)ccc23)CC1` [Example 166, (4-methylpiperazin-1-yl)-[1-methyl-6-(1H-pyrazolo[4,3-b]pyridin-3-ylamino)indazol-3-yl]methanone], the half-maximal effective concentration (EC50) is above 10000 nM. `Clc1cc(Nc2n[nH]c3nccnc23)cc2cnn(CC3CCC3)c12` [Example 64, N-(7-chloro-1-(cyclobutylmethyl)-1H-indazol-5-yl)-1H-pyrazolo[3,4-b]pyrazin-3-amine]: the EC50 was found to be 67 nM. To `Cn1nc(OCC2(C)COC2)c2ccc(Nc3n[nH]c4cccnc34)cc21` [Example 194, N-[1-methyl-3-[(3-methyloxetan-3-yl)methoxy]indazol-6-yl]-1H-pyrazolo[4,3-b]pyridin-3-amine] belongs 146 nM. Under `Cc1nn(CC2CCC2)c2ncc(Nc3n[nH]c4cccnc34)cc12` [Example 156, 1-(cyclobutylmethyl)-3-methyl-N-(1H-pyrazolo[4,3-b]pyridin-3-yl)pyrazolo[3,4-b]pyridin-5-amine] stands 110 nM; under `Cn1nc(OCC2CC2)c2ccc(Nc3n[nH]c4cccnc34)cc21` [Example 185, N-(3-(cyclopropylmethoxy)-1-methyl-1H-indazol-6-yl)-1H-pyrazolo[4,3-b]pyridin-3-amine], 164 nM. Under `Clc1n[nH]c2ccc(Nc3n[nH]c4cccnc34)cc12` [Example 140, N-(3-chloro-1H-indazol-5-yl)-1H-pyrazolo[4,3-b]pyridin-3-amine] stands 455 nM; under `Cn1nc(S(C)(=O)=O)c2ccc(Nc3n[nH]c4nccnc34)cc21` [Example 187, N-(1-methyl-3-(methylsulfonyl)-1H-indazol-6-yl)-1H-pyrazolo[3,4-b]pyrazin-3-amine], 2360 nM; under `Cn1cc2cc(Nc3n[nH]c4nccnc34)ccc2n1` [Example 83], 202 nM. `Cc1c2cc(Nc3n[nH]c4cccnc34)ccc2nn1C(C)(C)C` [Example 98, N-(2-(tert-butyl)-3-methyl-2H-indazol-5-yl)-1H-pyrazolo[4,3-b]pyridin-3-amine]: the EC50 is above 10000 nM.

Regarding `Cc1noc(Cn2nc(C)c3cc(Nc4n[nH]c5cccnc45)ccc32)n1` [Example 126, N-(3-methyl-1-((3-methyl-1,2,4-oxadiazol-5-yl)methyl)-1H-indazol-5-yl)-1H-pyrazolo[4,3-b]pyridin-3-amine], the EC50 came out at 264 nM.

Consider `Cc1cc(Cn2ncc3cc(Nc4n[nH]c5cccnc45)cc(Cl)c32)no1` [Example 82, N-(7-chloro-1-((5-methylisoxazol-3-yl)methyl)-1H-indazol-5-yl)-1H-pyrazolo[4,3-b]pyridin-3-amine], for which the EC50 was 136 nM.

Take `c1cnc2c(Nc3cccc4c3cnn4CC3CCC3)n[nH]c2c1` [Example 34, N-(1-(cyclobutylmethyl)-1H-indazol-4-yl)-1H-pyrazolo[4,3-b]pyridin-3-amine]: the EC50 was determined as 4300 nM.

On to `Cc1nnc(Cn2nc(C)c3cc(Nc4n[nH]c5cccnc45)ccc32)o1` [Example 129, N-(3-methyl-1-((5-methyl-1,3,4-oxadiazol-2-yl)methyl)-1H-indazol-5-yl)-1H-pyrazolo[4,3-b]pyridin-3-amine], for which the EC50 is 1300 nM. As to `Cc1nn(CC2CCC2)c2ccc(Nc3n[nH]c4cccnc34)cc12` [Example 72, N-(1-(cyclobutylmethyl)-3-methyl-1H-indazol-5-yl)-1H-pyrazolo[4,3-b]pyridin-3-amine], the EC50 was 47 nM.

As for `CC(C)CC1CC(=O)N(c2nn(C)c3cc(Nc4n[nH]c5cccnc45)ccc23)C1` (stereo not shown) [Example 36, N-(6-((1H-pyrazolo[4,3-b]pyridin-3-yl)amino)-1-methyl-1H-indazol-3-yl)-4-isobutylpyrrolidin-2-one], the EC50 was found to be 526 nM.

With `Cn1nc(N2CC(C)(C3CC3)CC2=O)c2ccc(Nc3n[nH]c4ccccc34)cc21` (stereo not shown) [Example 41, 1-(6-((1H-indazol-3-yl)amino)-1-methyl-1H-indazol-3-yl)-4-cyclopropyl-4-methylpyrrolidin-2-one], the concentration giving a half-maximal response (EC50) came to 1420 nM.

In the case of `Cc1nn(CC2CC(C(C)C)=NO2)c2ccc(Nc3n[nH]c4cccnc34)cc12` (stereo not shown) [Example 120, N-(1-((3-isopropyl-4,5-dihydroisoxazol-5-yl)methyl)-3-methyl-1H-indazol-5-yl)-1H-pyrazolo[4,3-b]pyridin-3-amine], the EC50 turned out to be 144 nM. Regarding `Cn1nc(OCCN2CCOCC2)c2c(Cl)cc(Nc3n[nH]c4cccnc34)cc21` [Example 209, N-[4-chloro-1-methyl-3-(2-morpholinoethoxy)indazol-6-yl]-1H-pyrazolo[4,3-b]pyridin-3-amine], the EC50 amounted to 322 nM. To `Cc1nn(C(=O)C(F)(F)F)c2ccc(Nc3n[nH]c4nccnc34)cc12` [Example 138, 1-(5-((1H-pyrazolo[3,4-b]pyrazin-3-yl)amino)-3-methyl-1H-indazol-1-yl)-2,2,2-trifluoroethan-1-one] belongs 3400 nM; to `CCCn1nc(C)c2cc(Nc3n[nH]c4cccnc34)ccc21` [Example 113, N-(3-methyl-1-propyl-1H-indazol-5-yl)-1H-pyrazolo[4,3-b]pyridin-3-amine], 123 nM; to `Cc1cc(Cn2nc(Cl)c3cc(Nc4n[nH]c5cccnc45)ccc32)on1` [Example 277, N-(3-chloro-1-((3-methylisoxazol-5-yl)methyl)-1H-indazol-5-yl)-1H-pyrazolo[4,3-b]pyridin-3-amine], 310 nM. Under `Cc1nn(C(C)(C)C)c2ccc(Nc3n[nH]c4cccnc34)cc12` [Example 97, N-(1-(tert-butyl)-3-methyl-1H-indazol-5-yl)-1H-pyrazolo[4,3-b]pyridin-3-amine] stands 575 nM; under `Cc1cc(COc2nn(C)c3cc(Nc4n[nH]c5cccnc45)ccc23)no1` [Example 183, N-(1-methyl-3-((5-methylisoxazol-3-yl)methoxy)-1H-indazol-6-yl)-1H-pyrazolo[4,3-b]pyridin-3-amine], 224 nM.

The values are drawn from US10526323B2, “Indazole and azaindazole substituted compounds as mGluR4 allosteric potentiators, compositions, and methods of treating neurological dysfunction” (Vanderbilt University, priority 2015, dated 2020).
